Values after ≈ are worked out from the molar mass of the structure shown.
Experiments:
[1] = system: human cancer cells from a wide variety of cell lineages; experiment: Apoptosis induction in a battery of tumor cells; format: cell-based; conditions: breast, prostate, leukemia/lymphoid, cervical, ovarian, endometrial, colon, lung cell lines
Experimental: (§1) Cells were cultured at 1.5×10^5 cells/well in 12 well plates. Cells were allowed to adhere overnight, then incubated with novel test compounds at 0.01, 0.1, 1, 5, 10 & 20 μg/mL for 1, 2 and 3 days. After treatment, cells (floating+trypsin released adherent cells) were pelleted, washed and stained with 2 μg/ml DAPI (4′,6-diamidine-2′-phenylindole dihydrochloride) in 100% methanol for 15 minutes at 37° C. and/or 3′-OH ends resulting from DNA fragmentation were detected with the TUNEL (terminal deoxynucleotidyl transferase-mediated dUTP-X 3′ nick end-labeling) technique, and then viewed using a Zeiss ICM 405 microscope. Cells whose nucleus contained clearly condensed or fragmented chromatin or stained for fragmented DNA in the TUNEL assay were scored as apoptotic. Data are presented as percent cells undergoing apoptosis.

MDA-MB-435 = experiment: Bioassay for apoptosis (apoptotic EC50); format: cell-based, human; conditions: for apoptotic EC50: MDA-MB-435, unit not given; for EC50: Homo sapiens, MDA-MB-435, MDA-MB-435, unit inferred, read-out: apoptotic EC50
Experimental: as §1

MDA-MB-231 = experiment: Bioassay for apoptosis (apoptotic EC50); format: cell-based, human; conditions: for EC50: Homo sapiens, MDA-MB-231, MDA-MB-231, unit inferred; for apoptotic EC50: MDA-MB-231, unit not given, in µg/mL
Experimental: as §1

MCF-7 = experiment: Bioassay for apoptosis (apoptotic EC50); format: cell-based, human; conditions: for EC50: Homo sapiens, MCF7, MCF-7, unit inferred; for apoptotic EC50: MCF-7, unit not given, in µg/mL
Experimental: as §1

[2] = system: HT-29 Human Colon Cancer Cells Transplanted into Nude Mice; experiment: Preclinical chemotherapeutic xenograft study; format: in vivo; conditions: for Mean tumor Weights (mg) Following Treatments / Percent mean tumor weight gain (mg) following treatments: positive control 30 mg/kg daily for 5 days
Experimental: (§2) For the preclinical chemotherapeutic studies, in the absence of an maximum tolerated dose, the mice are supplemented with 30 and 20 mgs/0.1 ml by gavage daily for 21 days. Compound 1 is dissolved in 100% ethanol at 2 grams of compound 1/5 mls of ethanol, and diluted in peanut oil (nonsupplemented vitamin E) to yield 30 and 20 mgs of compound 1 per 0.1 ml. Vehicle control consisted of a mixture of ethanol and peanut oil equivalents. The preclinical chemotherapeutic studies are conducted with compound 1, utilizing human MDA-MB-435 human breast cancer cells, human DU-145 prostate cancer cells, and human HT-20 colon tumor cells transplanted into Balb/c immune compromised nude mice.
(§3) A total of 40 immune compromised nude mice are utilized for testing each test compound (two treatment groups at 20 and 30 mg/day) in each tumor cell type. […] Tumor cells are transplanted subcutaneously into the left flank and permitted to grow to approximately 70 mg in size, test compound treatments by daily gavage are initiated, and continue for a total of 21 days. Mice are monitored daily for tumor size by caliper measurements. Mice are treated for 21 days; however, the mice are sacrificed when the tumors of the vehicle control reached 500 mg in weight. At the completion of the protocol, tumors are excised and tumor size established by weight. At the time of sacrifice, serum, tumor, and heart muscle are taken from animals in the two compound 1 test groups in order to establish levels of compound 1 via HPLC analyses (data not included). The chemotherapeutic effectiveness of compound 1 administered daily at 30 and 20 mgs/day is determined by comparing the tumor size of the two treatment groups with the vehicle control group for each of the three tumor types, and by comparing the size of the tumor in the two treatment groups with the tumor group from the positive control. Treatment is for 21 days, experiments are continued until mean weight of tumor for vehicle control reaches 500 mgs.

PC-3 = experiment: Bioassay for apoptosis (apoptotic EC50); format: cell-based, human; conditions: PC-3; unit not given; in µg/mL
Experimental: as §1

LnCaP = experiment: Bioassay for apoptosis (apoptotic EC50); format: cell-based, human; conditions: for apoptotic EC50: unit not given, in µg/mL; for EC50: Homo sapiens, unit inferred
Experimental: as §1

HL-60 = experiment: Bioassay for apoptosis (apoptotic EC50); format: cell-based, human; conditions: for apoptotic EC50: HL-60, unit not given, in µg/mL
Experimental: as §1

RL-95-2 = experiment: Bioassay for apoptosis (apoptotic EC50); format: cell-based, human; conditions: for EC50: Homo sapiens, RL95-2, RL-95-2, unit inferred
Experimental: as §1

C-170 = experiment: Bioassay for apoptosis (apoptotic EC50); format: cell-based, human; conditions: for apoptotic EC50: C-170, unit not given, in µg/mL; for EC50: Homo sapiens, C170, C-170, unit inferred
Experimental: as §1

ME-180 = experiment: Bioassay for apoptosis (apoptotic EC50); format: cell-based, human; conditions: for apoptotic EC50: ME-180, unit not given, in µg/mL; for EC50: Homo sapiens, ME-180, ME-180, unit inferred
Experimental: as §1

[3] = system: MDA-MB-435 Human Breast Cancer Cells Transplanted into Nude Mice; experiment: Preclinical chemotherapeutic xenograft study; format: in vivo; conditions: for Percent mean tumor weight gain (mg) following treatments / Mean tumor Weights (mg) Following Treatments: positive control 20 mg/kg i.p. daily for 5 days
Experimental: as §2, §3

[4] = system: DU-145 Human Prostate Cancer Cells Transplanted into Nude Mice; experiment: Preclinical chemotherapeutic xenograft study; format: in vivo; conditions: for Mean tumor Weights (mg) Following Treatments / Percent mean tumor weight gain (mg) following treatments: positive control 1 mg/kg i.v. daily for 5 days
Experimental: as §2, §3

MCF-10A = experiment: Bioassay for apoptosis (apoptotic EC50); format: cell-based; conditions: Homo sapiens, unit inferred
Experimental: as §1

HMEC = experiment: Bioassay for apoptosis (apoptotic EC50); format: cell-based; conditions: Homo sapiens, unit inferred
Experimental: as §1

Cc1c(C)c(OCC(=O)O)c(C)c2c1NC(C)(CCCC(C)CCCC(C)CCCC(C)C)CC2 (stereo not drawn) [Compound 39, 1-Aza-α-tocopherol-6-yloxyl-acetic acid]
growth inhibitory (apoptotic inducing) properties specific for human cancer cells [1]: effective
apoptotic EC50 (MDA-MB-435; in µg/mL): 10-20

Cc1c(C)c2c(c(C)c1OCC(=O)O)CC[C@](C)(C(=O)O)O2 [Compound 16]
EC50 (MDA-MB-231): > 20 µg/mL
EC50 (MCF-7): > 20 µg/mL
EC50 (MDA-MB-435): > 20 µg/mL

O=c1[nH]cc(F)c(=O)[nH]1 [Compound 5-FU, 5 Fluorouracil, reference compound]
Mean tumor Weights (mg) Following Treatments ([2]; day 1): 59.3 mg
Percent mean tumor weight gain (mg) following treatments ([2]; day 1): 100%
Mean tumor Weights (mg) Following Treatments ([2]; day 5): 87.5 mg
Percent mean tumor weight gain (mg) following treatments ([2]; day 5): 147.6%
Mean tumor Weights (mg) Following Treatments ([2]; day 8): 105.8 mg
Percent mean tumor weight gain (mg) following treatments ([2]; day 8): 178.4%
Mean tumor Weights (mg) Following Treatments ([2]; day 12): 145.8 mg
Percent mean tumor weight gain (mg) following treatments ([2]; day 12): 245.9%
Mean tumor Weights (mg) Following Treatments ([2]; day 15): 141.6 mg
Percent mean tumor weight gain (mg) following treatments ([2]; day 15): 247.2%
Mean tumor Weights (mg) Following Treatments ([2]; day 19): 212.3 mg
Percent mean tumor weight gain (mg) following treatments ([2]; day 19): 358.0%
Mean tumor Weights (mg) Following Treatments ([2]; day 22): 255.5 mg
Percent mean tumor weight gain (mg) following treatments ([2]; day 22): 430.0%
reduction of mean tumor growth vs vehicle control ([2]; positive control, 30 mg/kg daily for 5 days): 31.4%

Cc1c(C)c2c(c(C)c1OCCCC(=O)O)CC[C@@](C)(CCC[C@H](C)CCC[C@H](C)CCCC(C)C)O2 [Compound 3, 2,5,7,8-tetramethyl-(2R-(4R,8R,12-trimethyltridecyl)chroman-6-yloxy) butyric acid]
growth inhibitory (apoptotic inducing) properties specific for human cancer cells [1]: effective
apoptotic EC50 (PC-3): 5-10
apoptotic EC50 (MDA-MB-231): 5-10
apoptotic EC50 (LnCaP): 5-10
apoptotic EC50 (HL-60): 10-20
apoptotic EC50 (RL-95-2; RL-95-2, unit not given, in µg/mL): 10-20
apoptotic EC50 (MCF-7): 20-30
apoptotic EC50 (MDA-MB-435; in µg/mL): 5-10
apoptotic EC50 (C-170): 10-20
apoptotic EC50 (ME-180): 10-20

CC(=O)O[C@H]1C(=O)[C@@]2(C)[C@H]([C@H](OC(=O)c3ccccc3)[C@]3(O)C[C@H](OC(=O)[C@H](O)[C@@H](NC(=O)c4ccccc4)c4ccccc4)C(C)=C1C3(C)C)[C@]1(OC(C)=O)CO[C@@H]1C[C@@H]2O [Taxol, reference compound]
Percent mean tumor weight gain (mg) following treatments ([3]; day 1): 100%
Percent mean tumor weight gain (mg) following treatments ([3]; day 4): 101.1%
Mean tumor Weights (mg) Following Treatments ([3]; day 7): 38.2 mg
Percent mean tumor weight gain (mg) following treatments ([3]; day 7): −46.0%
Mean tumor Weights (mg) Following Treatments ([3]; day 10): 11.7 mg
Percent mean tumor weight gain (mg) following treatments ([3]; day 10): −83.7%
Mean tumor Weights (mg) Following Treatments ([3]; day 14): 5.7 mg
Percent mean tumor weight gain (mg) following treatments ([3]; day 14): −91.8%
Mean tumor Weights (mg) Following Treatments ([3]; day 17): 3.6 mg
Percent mean tumor weight gain (mg) following treatments ([3]; day 17): −99.5%
Mean tumor Weights (mg) Following Treatments ([3]; day 21): 6.8 mg
Percent mean tumor weight gain (mg) following treatments ([3]; day 21): −90.3%
reduction of mean tumor growth vs vehicle control ([3]; positive control, 20 mg/kg intraperitoneally daily for 5 days): 90.3%

Cc1c(C)c2c(c(C)c1N=Nc1ccc([N+](=O)[O-])cc1[N+](=O)[O-])CCC(C)(CCCC(C)CCCC(C)CCCC(C)C)N2 (stereo not drawn) [Compound 43]
apoptotic EC50 (MDA-MB-435): PPT

Cc1c(C)c2c(c(C)c1OCCC(=O)O)CC[C@@](C)(CCC[C@H](C)CCC[C@H](C)CCCC(C)C)O2 [Compound 2, 2,5,7,8-tetramethyl-(2R-(4R,8R,12-trimethyltridecyl)chroman-6-yloxy) propionic acid]
growth inhibitory (apoptotic inducing) properties specific for human cancer cells [1]: effective
apoptotic EC50 (PC-3): 5-10
apoptotic EC50 (MDA-MB-231): 10-20
apoptotic EC50 (LnCaP): 5-10
apoptotic EC50 (HL-60): 10-20
apoptotic EC50 (MCF-7): 20-30
apoptotic EC50 (MDA-MB-435; in µg/mL): 10-20
apoptotic EC50 (C-170): 10-20
apoptotic EC50 (ME-180): 5-10

O=C1c2c(O)ccc(O)c2C(=O)c2c(NCCNCCO)ccc(NCCNCCO)c21 [Mitoxantrone, reference compound]
Mean tumor Weights (mg) Following Treatments ([4]; day 1): 66.8 mg
Percent mean tumor weight gain (mg) following treatments ([4]; day 1): 100%
Mean tumor Weights (mg) Following Treatments ([4]; day 5): 107.2 mg
Percent mean tumor weight gain (mg) following treatments ([4]; day 5): 160.5%
Mean tumor Weights (mg) Following Treatments ([4]; day 8): 141.1 mg
Percent mean tumor weight gain (mg) following treatments ([4]; day 8): 211.2%
Mean tumor Weights (mg) Following Treatments ([4]; day 12): 185.4 mg
Percent mean tumor weight gain (mg) following treatments ([4]; day 12): 277.5%
Mean tumor Weights (mg) Following Treatments ([4]; day 15): 205.2 mg
Percent mean tumor weight gain (mg) following treatments ([4]; day 15): 307.2%
Mean tumor Weights (mg) Following Treatments ([4]; day 19): 325.3 mg
Percent mean tumor weight gain (mg) following treatments ([4]; day 19): 487.0%
Mean tumor Weights (mg) Following Treatments ([4]; day 22): 389.4 mg
Percent mean tumor weight gain (mg) following treatments ([4]; day 22): 582.9%
reduction of mean tumor growth vs vehicle control ([4]; positive control, 1 mg/kg daily intravenously for 5 days): 27.9%

2-(2,5,7,8-tetramethyl-(2R-(4R,8,12-trimethyltridecyl)chroman-6-yloxy)triethylammonium sulfate [Compound 21]
growth inhibitory (apoptotic inducing) properties specific for human cancer cells [1]: effective
apoptotic EC50 (ME-180): 1-5

Cc1c(C)c2c(c(C)c1OCC(N)=O)CC[C@@](C)(CCC[C@H](C)CCC[C@H](C)CCCC(C)C)O2 [Compound 10, 2,5,7,8-tetramethyl-(2R-(4R,8R,12-trimethyltridecyl)chroman-6-yloxy)acetamide]
EC50 (MCF-10A): > 20 µg/mL
EC50 (HMEC): > 20 µg/mL
EC50 (MDA-MB-231): > 20 µg/mL
EC50 (LnCaP): > 20 µg/mL
EC50 (HL-60; Homo sapiens, HL-60, HL-60, unit inferred): > 20 µg/mL
EC50 (RL-95-2): > 20 µg/mL
EC50 (MCF-7): > 20 µg/mL
EC50 (MDA-MB-435): > 20 µg/mL
EC50 (C-170): > 20 µg/mL
EC50 (ME-180): > 20 µg/mL

C/C(=C\CSc1cc(C)c(OCC(=O)O)c(C)c1C)CCCC(C)CCCC(C)CCCC(C)C (stereo not drawn) [Compound 27, E.Z,RS,RS,RS-(phytyltrimethylbenzenethiol-6-yloxy)acetic acid]
growth inhibitory (apoptotic inducing) properties specific for human cancer cells [1]: effective
EC50 (LnCaP): 10 to 20 µg/mL (≈ 19.8 to 39.6 µM)
EC50 (MCF-7): 10 to 20 µg/mL (≈ 19.8 to 39.6 µM)

Cc1c(C)c2c(c(C)c1OCC(=O)O)CCC(C)(CCCC(C)CCCC(C)CCCC(C)C)O2 (racemic) [Compound 15, 2,5,7,8-tetramethyl-(2RS-(4RS,8RS,12-trimethyltridcyl)chroman-6-yloxy)acetic acid]
growth inhibitory (apoptotic inducing) properties specific for human cancer cells [1]: effective
EC50 (MDA-MB-231): 20 to 30 µg/mL (≈ 40.9 to 61.4 µM)
EC50 (RL-95-2): > 20 µg/mL
EC50 (MCF-7): 20 to 30 µg/mL (≈ 40.9 to 61.4 µM)
EC50 (MDA-MB-435): 20 to 30 µg/mL (≈ 40.9 to 61.4 µM)
EC50 (C-170): > 20 µg/mL
EC50 (ME-180): > 20 µg/mL
